Source: US8697149B2, “Extracts and compounds from “Tulbaghia violacea” and their use as biological plant protecting agents” (Agrarforum AG, priority 2005, dated 2014)
“And” between values parts separate entries of the source, which are not always exact repeats. Identical values can stand only once.

Experiments:
[1] = system: covered kernel smut (Sporisorium sorghi); test: field trial, sorghum seed treatment against covered kernel smut; type: in vivo, Sporisorium sorghi on sorghum; details: sorghum seed inoculated with covered kernel smut spores; extract 2.0 g/l, Thiram 0.25% (w/w); field conditions
[2] = system: loose kernel smut (Sporisorium cruentum); test: field trial, sorghum seed treatment against loose kernel smut; type: in vivo, Sporisorium cruentum on sorghum; details: sorghum seed inoculated with loose kernel smut spores; extract 2.0 g/l, Thiram 0.25% (w/w); field conditions
[3] = system: Fusarium oxysporum; test: in vitro mycelial growth inhibition, modified agar dilution method
[4] = aerial part compounds after P-TLC separation
[5] = below soil part compounds after P-TLC separation

Question: What does the source list for `CN(C)C(=S)SSC(=S)N(C)C` [Thiram]?
Answer: Yield [1]: 4.8 ± 0.6a ton ha^−1; Yield [2]: 3.9 ± 1.3a ton ha^−1

Question: How did the “% inhibition (mycelial growth of F. oxysporum)” value (from here on “% inhibition”) [3, 4] turn out when 2,4-Dithiapentane [Compound A7.1] was run?
Answer: The value was 87%.

Question: For Methylthiosulphonate [Compound A7.2], which “% inhibition” value [3, 4] is on record?
Answer: Its value is 50% and 52%.

Question: How did the “% inhibition” value [3, 5] turn out when `CSCSSSCSC` [Compound B3.2, 2,4,5,6,8-Pentathianonane] was run?
Answer: Its value is 72%.

Question: `CSCSSCSC` [Compound B2.2, 2,4,5,7-Tetrathiaoctane] was tested. Which “% inhibition” value [3, 5] did it give?
Answer: The value was 87%.

Question: For `CSCSCSC` [Compound A6.1, 2,4,6-Trithiaheptane], which “% inhibition” value [3, 4] is on record?
Answer: The value was 85%.
